Test results published in patent US9387213B2, “Small molecules inhibiting oncoprotein Myc” (Health Research, Inc., priority 2012, dated 2016).

What follows are compounds tested on SK-Mel-19 (assay: Suppression of proliferation / senescence induction in melanoma line). Conditions: Homo sapiens, SK-MEL19.
Type: cell-based
Source text: (§1) 260 analogs of N77A7 were selected from several commercially available libraries of small molecules based on the structural similarities with N77A7. The compounds were screened for the ability to permanently suppress proliferation and induce senescence in cells from melanoma lines SK-Mel-19 and SK-Mel-103. Based on the above-described screening procedure, seven small molecules were identified as having IC50 values lower than that of N77A7.

Compound `Nc1nonc1-n1nnc(C(=O)N/N=C/c2ccccc2O)c1CN1CCc2ccccc2C1` [Compound 5] has an IC50 of 0.6 µM.

What follows are compounds tested on SK-Mel-103 in the same assay as above. Conditions: Homo sapiens.
Type: cell-based
Source text: as §1

With `Nc1nonc1-n1nnc(C(=O)N/N=C/c2ccccc2O)c1CN1CCc2ccccc2C1` [Compound 5] the IC50 was 0.35 µM.

These compounds were tested on HO-null cells (assay: Secondary filter for Myc specificity: cell growth inhibition, methylene blue staining). Conditions: Rattus norvegicus, 72 h, read-out: ID50 HO-null.
Type: cell-based
Description: (§2) FIG. 4 illustrates the myc specificity of tested compounds. Rat1a cells expressing c-myc, L-myc or N-myc or lacking any Myc (null) were treated for 72 h with a range of hit compound concentrations. The cells were then fixed and stained with methylene blue and the percentage of cells in the presence of compound compared to DMSO only control was calculated.
(§3) Validated hits were divided into classes when two or more compounds shared significant structural similarity. The ID50 for N-myc transactivation (the inhibitory dose resulting in 50% decrease in luciferase activity) for each hit was calculated from the dose-response N-myc responsive reporter assay. Compounds within each class were ranked by their ID50 for N-myc transactivation and the best compounds within each class were chosen for further studies. In addition, the best of the structurally unique compounds were also analyzed. A total of 46 hits were passed through a secondary filter designed to determine the specificity of the hits for Myc proteins. For this filter, we used a panel of cell lines derived from Rat1a cells (kindly provided by Michael Cole, Dartmouth University): HO-null-c-Myc deficient cells due to homologous recombination that express neither N-myc nor L-myc HO-c-Myc, HO-L-myc and HO-N-myc derived by retroviral transduction of the corresponding Myc genes into HO-null cells. Since each cell line expresses only a single Myc or no Myc family members, we could identify compounds that act through Myc family members as well as which Myc family members. […] The 18 Myc-specific compounds identified during the screening and filtering process are presented in Table 1 and represent distinct classes of molecules, including pyrazoles (e.g., N147A7, N47E10, N147G5), tetrazoles (e.g., N77A7) and 3-bromophenol (e.g., N4G6).

`O=C(COc1ccc2ccccc2c1)N/N=C\c1cc(O)c(O)c(Br)c1` [Compound N4D2] and `COc1ccc(OCC(=O)N/N=C\c2cc(O)c(O)c(Br)c2)c(Br)c1` [Compound N4G6] cannot be ordered by IC50: greater than 100 µM for the first, greater than 100 µM for the second.

Going from `O=C(Oc1c(C(=O)Nc2ccc(Cl)c([N+](=O)[O-])c2)ccc2ccccc12)c1ccccc1` [Compound N6A8] to `O=c1[nH]c2ccc(/N=C/c3cn(Cc4ccc(Cl)cc4Cl)c4ccccc34)cc2[nH]1` [Compound N18C5], the IC50 rises from 21.1 µM to greater than 100 µM. The first is the more potent here.

In the case of `CC(C)(C)c1cc(C(=O)N/N=C/c2ccc(O)cc2O)n(-c2ccccc2)n1` [Compound N47E10], the IC50 is reported as 7.21 µM.

These compounds were tested on HO-N-myc cells in the same assay as above. Conditions: ID50 in HO-null cells divided by ID50 in HO—N-myc cells.
Type: cell-based, rat
Description: as §2, §3

In the case of `O=C(COc1ccc2ccccc2c1)N/N=C\c1cc(O)c(O)c(Br)c1` [Compound N4D2], the “Myc Index N” value is reported as greater than 1.1.
With `COc1ccc(OCC(=O)N/N=C\c2cc(O)c(O)c(Br)c2)c(Br)c1` [Compound N4G6] the “Myc Index N” value was greater than 10.
`O=c1[nH]c2ccc(/N=C/c3cn(Cc4ccc(Cl)cc4Cl)c4ccccc34)cc2[nH]1` [Compound N18C5] was tested, and the “Myc Index N” value was greater than 6.

Going from `O=C(Oc1c(C(=O)Nc2ccc(Cl)c([N+](=O)[O-])c2)ccc2ccccc12)c1ccccc1` [Compound N6A8] to `CC(C)(C)c1cc(C(=O)N/N=C/c2ccc(O)cc2O)n(-c2ccccc2)n1` [Compound N47E10], the “Myc Index N” value rises from 2.2 to 5.

Same assay, conditions: Rattus norvegicus; cell growth inhibition, 72 h, methylene blue; read-out: ID50 HO—N-myc

First: O=C(COc1ccc2ccccc2c1)N/N=C\c1cc(O)c(O)c(Br)c1 [Compound N4D2]
Second: COc1ccc(OCC(=O)N/N=C\c2cc(O)c(O)c(Br)c2)c(Br)c1 [Compound N4G6]
The IC50 of the first is 8.6-fold higher: 88 µM for the first, 10.2 µM for the second. The second is the more potent here.

First: O=C(Oc1c(C(=O)Nc2ccc(Cl)c([N+](=O)[O-])c2)ccc2ccccc12)c1ccccc1 [Compound N6A8]
Second: O=c1[nH]c2ccc(/N=C/c3cn(Cc4ccc(Cl)cc4Cl)c4ccccc34)cc2[nH]1 [Compound N18C5]
The IC50 of the first is 1.6-fold lower: 9.71 µM for the first, 16 µM for the second. The first is the more potent here.

In the case of `CC(C)(C)c1cc(C(=O)N/N=C/c2ccc(O)cc2O)n(-c2ccccc2)n1` [Compound N47E10], the IC50 is reported as 1.44 µM.

What follows are compounds tested on HO-c-Myc cells in the same assay as above. Conditions: ID50 in HO-null cells divided by ID50 in HO-c-myc cells.
Type: cell-based, rat
Description: as §2, §3

`O=C(COc1ccc2ccccc2c1)N/N=C\c1cc(O)c(O)c(Br)c1` [Compound N4D2] was tested, and the “Myc Index C” value was greater than 3.
`COc1ccc(OCC(=O)N/N=C\c2cc(O)c(O)c(Br)c2)c(Br)c1` [Compound N4G6] was tested, and the “Myc Index C” value was greater than 3.

First: O=C(Oc1c(C(=O)Nc2ccc(Cl)c([N+](=O)[O-])c2)ccc2ccccc12)c1ccccc1 [Compound N6A8]
Second: CC(C)(C)c1cc(C(=O)N/N=C/c2ccc(O)cc2O)n(-c2ccccc2)n1 [Compound N47E10]
The “Myc Index C” value of the first is lower: 2.4 for the first, 2.8 for the second.

Same assay, conditions: Rattus norvegicus; cell growth inhibition, 72 h, methylene blue; read-out: ID50 HO-c-myc

`O=C(COc1ccc2ccccc2c1)N/N=C\c1cc(O)c(O)c(Br)c1` [Compound N4D2] and `COc1ccc(OCC(=O)N/N=C\c2cc(O)c(O)c(Br)c2)c(Br)c1` [Compound N4G6] are within 1.5-fold of each other in IC50: 33.8 µM for the first, 32.6 µM for the second.

First: O=C(Oc1c(C(=O)Nc2ccc(Cl)c([N+](=O)[O-])c2)ccc2ccccc12)c1ccccc1 [Compound N6A8]
Second: O=c1[nH]c2ccc(/N=C/c3cn(Cc4ccc(Cl)cc4Cl)c4ccccc34)cc2[nH]1 [Compound N18C5]
The IC50 of the first is lower: 8.86 µM for the first, greater than 100 µM for the second.

With `CC(C)(C)c1cc(C(=O)N/N=C/c2ccc(O)cc2O)n(-c2ccccc2)n1` [Compound N47E10] the IC50 was 2.54 µM.
